How the values were obtained:
[1] = biological target: T1, human dopamine D2L receptors (long isoform) (Homo sapiens, UniProt P14416); assay: Dopamine D2L receptor binding, [125I] iodospiperone displacement; settings: membranes of HEK-293 cells, 0.01 nM [125I] iodospiperone, 25° C., 60 minutes; read-out: Ki(D2)
T1 construct: expressed in transfected cells; host or cells: HEK-293
Procedure: (§1) The substance to be tested was either dissolved in methanol/Chremophor® (BASF-AG) or in dimethyl sulfoxide and then diluted with water to the desired concentration.
(§2) Each assay mixture was run in triplicate.
The incubation buffer contained 50 mM tris, 120 mM NaCl, 5 mM KCl, 2 mM CaCl2, 2 mM MgCl2 and 0.1% bovine serum albumin. The buffer was adjusted to pH 7.4 with HCl.
(§3) After having been incubated at 25° C. for 60 minutes, the assay mixtures were filtered through a Whatman GF/B glass fiber filter under vacuum using a cell collecting device. The filters were transferred to scintillation viols using a filter transfer system. After 4 ml of Ultima Gold® (Packard) have been added, the samples were shaken for one hour and the radioactivity was then counted in a Beta-Counter (Packard, Tricarb 2000 or 2200CA). The cpm values were converted into dpm using a standard quench series and the program belonging to the instrument.
(§4) The inhibition curves were analyzed by means of iterative nonlinear regression analysis using the Statistical Analysis System (SAS) which is similar to the “LIGAND” program described by Munson and Rodbard.

[2] = biological target: T2, human dopamine D3 receptors (Homo sapiens, UniProt P35462); assay: Dopamine D3 receptor binding, [125I]-iodosulpride displacement; settings: for Ki: membranes of HEK-293 cells, 0.1 nM [125I]-iodosulpride, 25° C., 60 minutes; for Ki(D2)/Ki(D3): selectivity ratio of receptor binding constants
T2 construct: expressed in transfected cells; host or cells: HEK-293
T2 sequence (P35462 whole entry): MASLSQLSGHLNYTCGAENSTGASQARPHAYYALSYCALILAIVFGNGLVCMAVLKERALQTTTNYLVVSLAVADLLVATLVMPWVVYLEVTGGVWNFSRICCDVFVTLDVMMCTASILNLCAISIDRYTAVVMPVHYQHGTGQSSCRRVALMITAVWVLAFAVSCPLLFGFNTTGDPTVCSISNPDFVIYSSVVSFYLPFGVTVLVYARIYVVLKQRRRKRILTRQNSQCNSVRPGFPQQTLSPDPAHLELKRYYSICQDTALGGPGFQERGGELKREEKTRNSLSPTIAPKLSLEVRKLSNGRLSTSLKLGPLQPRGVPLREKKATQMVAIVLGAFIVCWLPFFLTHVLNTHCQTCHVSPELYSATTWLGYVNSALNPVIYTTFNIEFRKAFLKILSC
Procedure: as §1, §2
The incubation buffer contained 50 mM tris, 120 mM NaCl, 5 mM KCl, 2 mM CaCl2, 2 mM MgCl2 and 0.1% bovine serum albumin, 10 μM quinolone and 0.1% ascorbic acid (prepared fresh daily). The buffer was adjusted to pH 7.4 with HCl.
as §3, §4

T1 sequence (P14416 whole entry, canonical isoform): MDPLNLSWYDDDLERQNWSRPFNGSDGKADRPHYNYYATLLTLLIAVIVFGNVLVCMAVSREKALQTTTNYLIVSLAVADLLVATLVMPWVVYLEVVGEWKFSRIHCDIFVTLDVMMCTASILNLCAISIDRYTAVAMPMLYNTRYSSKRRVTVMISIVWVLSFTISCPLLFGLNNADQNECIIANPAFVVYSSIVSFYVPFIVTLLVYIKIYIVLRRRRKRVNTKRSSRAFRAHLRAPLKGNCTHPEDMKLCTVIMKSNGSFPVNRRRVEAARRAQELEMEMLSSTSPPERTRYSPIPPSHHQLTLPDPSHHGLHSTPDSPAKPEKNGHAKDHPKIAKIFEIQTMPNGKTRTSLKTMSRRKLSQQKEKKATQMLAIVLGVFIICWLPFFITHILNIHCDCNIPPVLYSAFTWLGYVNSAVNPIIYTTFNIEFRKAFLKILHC

| Compound | Ki [1] | Ki [2] | Ki(D2)/Ki(D3) [2] |
| --- | --- | --- | --- |
| Cn1c(OCCCN2CCN(c3cc(C4(C)CC4)nc(C(C)(C)C)n3)CC2)nnc1-c1ccccc1 [Example 63, 2-tert-Butyl-4-(1-methyl-cyclopropyl)-6-{4-[3-(4-methyl-5-phenyl-4H-[1,2,4]triazol-3-yloxy)-propyl]-piperazin-1-yl}-pyrimidine] | 104 nM | 2.6 nM | 40 |
| Cn1c(OCCCN2CCN(c3cc(C4CCC4)nc(C(C)(C)C)n3)CC2)nnc1-c1ccccc1 [Example 64, 2-tert-Butyl-4-cyclobutyl-6-{4-[3-(4-methyl-5-phenyl-4H-[1,2,4]triazol-3-yloxy)-propyl]-piperazin-1-yl}-pyrimidine] | 147 nM | 1.6 nM | 92 |
| Cn1cnnc1SCCCN1CCN(c2cc(C(F)(F)F)nc(C3(C)CC3)n2)CC1 [Example 65, 2-(1-Methyl-cyclopropyl)-4-{4-[3-(4-methyl-4H-[1,2,4]triazol-3-ylsulfanyl)-propyl]-piperazin-1-yl}-6-trifluoromethyl-pyrimidine] | 797 nM | 22.1 nM | 36 |
| Cl.Cn1cccc1-c1nnc(SCCCN2CCN(c3cc(C4CCC4)nc(C(C)(C)C)n3)CC2)n1C [Example 66, 2-tert-Butyl-4-cyclobutyl-6-(4-{3-[4-methyl-5-(1-methyl-1H-pyrrol-2-yl)-4H-[1,2,4]triazol-3-ylsulfanyl]-propyl}-piperazin-1-yl)-pyrimidine hydrochloride] | 102 nM | 0.96 nM | 106 |

Reference: patent US8202868B2, “4-piperazinyl-pyrimidine compounds suitable for treating disorders that respond to modulation of the dopamine D3 receptor” (Abbott GmbH & Co. KG, priority 2004, dated 2012)
